PubChem BioAssay (NCI)
“And” between values parts separate entries of the source, which are not always exact repeats. Identical values can stand only once.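 Dose response: 5 concentrations. Exposure: 48 h. Format: 96-well plates. Endpoint: linear interpolation; highest concentration if not reached. GI50 marks 50% less growth. Definition used: TGI = concentration required for complete inhibition of growth.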

What was measured:
Test in all cases: NCI anticancer screen, dose series, 48 h
SW-620 colon = tested on: SW-620 colon
EKVX NSCLC = tested on: EKVX NSCLC
HOP-62 NSCLC = tested on: HOP-62 NSCLC
CCRF-CEM leukemia = tested on: CCRF-CEM leukemia
HCT-15 colon = tested on: HCT-15 colon
OVCAR-4 ovarian = tested on: OVCAR-4 ovarian
M14 melanoma = tested on: M14 melanoma
HL-60(TB) leukemia = tested on: HL-60(TB) leukemia
CAKI-1 renal = tested on: CAKI-1 renal
KM12 colon = tested on: KM12 colon

| Structure (SMILES) | GI50 (SW-620 colon) [µM] | TGI (SW-620 colon) [µM] | GI50 (EKVX NSCLC) [µM] | TGI (EKVX NSCLC) [µM] | GI50 (HOP-62 NSCLC) [µM] | TGI (HOP-62 NSCLC) | GI50 (CCRF-CEM leukemia) [µM] | TGI (CCRF-CEM leukemia) | GI50 (HCT-15 colon) [µM] | TGI (HCT-15 colon) [µM] | GI50 (OVCAR-4 ovarian) [µM] | TGI (OVCAR-4 ovarian) [µM] | GI50 (M14 melanoma) [µM] | TGI (M14 melanoma) [µM] | GI50 (HL-60(TB) leukemia) [µM] | TGI (HL-60(TB) leukemia) | GI50 (CAKI-1 renal) [µM] | TGI (CAKI-1 renal) | GI50 (KM12 colon) [µM] | TGI (KM12 colon) [µM] |
| --- | --- | --- | --- | --- | --- | --- | --- | --- | --- | --- | --- | --- | --- | --- | --- | --- | --- | --- | --- | --- |
| O=C1/C(=C/C(Cl)=C/c2ccccc2)SC(=S)N1CCc1ccc(O)cc1 | 1.43 | 3.9 | 1.97 | 4.14 | 3.15 | 12.2 µM | 0.441 | > 100 µM | 2.05 | 11.2 | 3.19 | 35.8 | 2.42 | 9.7 | 1.5 | > 100 µM | 1.52 | 3.78 µM | 1.49 | 3.03 |
| O=C1/C(=C/c2ccc(Cl)cc2)CN(C(=O)C(Cl)Cl)C/C1=C\c1ccc(Cl)cc1 | 0.04 | 0.231 | 0.292 | 1.03 | 0.288 | 0.94 µM | 0.0742 | > 59.3 µM | 0.0577 | 0.793 | 0.283 | 1.32 | 0.242 | 0.749 | 0.291 |  | 0.264 | 0.865 µM | 0.0912 | 0.273 |
| C=CCN(N=O)C(=O)N(CCC)CCCCC(NC(C)=O)C(=O)NCc1ccccc1 (stereo not drawn) |  | > 100 |  | > 100 |  | > 100 µM |  | > 100 µM |  | > 100 |  | > 100 |  | > 100 |  | 54.4 µM |  | > 100 µM |  | > 100 |
| COC(=O)C#Cc1ccc([N+](=O)[O-])cc1 |  | 3.78 |  | 3.48 |  | 6.87 µM |  | 2.27 µM |  | 1.6 |  | 3.5 |  | 4.96 |  | 4.32 µM |  | 2.74 µM |  | 3.9 |
| COc1cnc2c(c1)C(=O)c1c-2n(CCCN2CCN(C)CC2)c(=O)c2cc(Cl)ccc12 | 0.299 | 12.8 | 7.73 | 31.9 | 0.95 | 36 µM | 0.527 | 20.1 µM | 4.08 | 27.9 | 2.19 | 18.1 | 1.71 | 3.61 | 18 | 42.4 µM | 2.97 | 18.4 µM | 3.37 | 20.5 |
| COC(=O)C1=CC2OC1(C)C1(CC1)C2=O (stereo not drawn) |  | 34 |  | 29 |  | > 100 µM |  | 23.2 µM |  | 40 |  | 24 |  | 29.1 |  | 16.1 µM |  | 33.5 µM |  | 43.9 |
| Cn1cnc2c(NCc3ccccc3)nc(NCCO)nc21 | 158 | > 426 | 57 | 170 |  | > 86 µM and 183 µM | 143 | 98.2 µM and 353 µM | 129 | > 500 | 110 | 339 | 51 | 120 | 73.2 | > 73 µM and 220 µM | 63.6 | > 90.6 µM and 265 µM | 62.1 | 344 |
| Cc1ccc(NC(=O)c2ccnc(N3CCCC3)c2)cc1-c1ccc(C(=O)NCC2CC2)cc1 | > 25 | > 25 | > 25 | > 25 | > 25 | > 25 µM | > 25 | > 25 µM | > 25 | > 25 | > 25 | > 25 | > 25 | > 25 | > 25 | > 25 µM | > 25 | > 25 µM | > 25 | > 25 |
| Cc1ccc(C(=O)NC2CCCCC2)cc1-c1ccc(C(=O)NCC2CC2)cc1 | > 25 | > 25 | > 19.4 | > 25 | > 25 | > 25 µM | > 25 | > 25 µM | > 25 | > 25 | > 25 | > 25 | > 25 | > 25 | > 25 | > 25 µM | 24.9 | > 25 µM | > 22.5 | > 25 |
| CO[C@H]1CC[C@@]2(C)C(=CC[C@H]3[C@@H]4C[C@H](O)C[C@@]4(C)CC[C@@H]32)C1 | 3.38 | 15 | 6.85 | 29 | 10.2 | 52.4 µM | 3.05 | 19.1 µM | 5.04 | 23.2 | 8.82 | 54.2 | 3.61 | 16.2 | 3.69 | 66.7 µM | 2.93 | 16.3 µM | 4.5 | 15.8 |
| COC(=O)N/N=C(\C)C(CN1CCOCC1)C(c1ccccc1)c1cc2ccccc2oc1=O (stereo not drawn) |  | > 100 |  | > 100 |  | > 100 µM |  | > 100 µM |  | > 100 |  | > 100 |  | > 100 |  | 85.3 µM |  | > 100 µM |  | > 100 |
| COC(=O)Nc1nc2ccc(Oc3ccc(NC(=O)Nc4cccc(Cl)c4)cc3)cc2[nH]1 | 0.975 | 9.85 | 3.71 | > 25 | 0.9 | 4.73 µM | 0.838 | > 15 µM | 0.815 | > 25 | 3.05 | 8.19 | 1.25 | > 11.8 | 0.859 | 2.92 µM | 1.74 | > 21.6 µM | 0.147 | 3.8 |
